Values joined by “and” are separate entries in the source; they are usually repeats but may differ in a detail not shown here. Identical values can stand only once.
Assay: Blood-brain barrier penetration by the method of Oldendorf (radioactively marked active material, A. carotis injection, brain radioactivity after 15 seconds)
Conditions: for percentage proportion of active material which has passed the blood-brain barrier, with C5: with addition of glycerol 1-pentyl ether; for percentage proportion of active material which has passed the blood-brain barrier, with C5 / percentage proportion of active material which has passed the blood-brain barrier, with C3: about 0.3 Osmol/l; for percentage proportion of active material which has passed the blood-brain barrier, with C5 / percentage proportion of active material which has passed the blood-brain barrier, without / percentage proportion of active material which has passed the blood-brain barrier, with C3: A. carotis, 15 seconds, + dissolved in inger albumin; for percentage proportion of active material which has passed the blood-brain barrier, without: without addition of a compound of the general formula; for percentage proportion of active material which has passed the blood-brain barrier, with C3: with addition of glycerol 1-propyl ether
Description: The effectiveness of the medicament according to the invention was tested according to the method of Oldendorf (Brain-Res., 24, 372-376 (1970)). […] In the case of the medicament according to the invention, the administration took place into the A. carotis. 15 seconds later, the experimental animal was decapitated, the brain removed and the radioactivity bound therein determined. […] The numerical values give the percentage proportion of active material which has passed the blood-brain barrier. As comparative substance, there was employed an isotonic buffer solution. The compound of the general formula was present in iso-osmolar concentration, which corresponds to about 0.3 Osmol/ 1. in the solution administered.
In the case of the experiments according to the method of Oldendorf, the active materials were used in amounts of between 10 and 100 μmol. There was thereby obtained no dependency of the penetration percentage of the active material concentration, i.e. that with increasing amount of active material, the percentage passing the blood-brain barrier remained about the same. In the case of methotrexate as active material, the penetration was also investigated in the case of higher concentrations.
The penetration achieved also depends upon the amount of glycerol derivative of the general formula used. Referring to the results given in Table 1, e.g. with endoxan and the C3 additive, there was achieved a penetration of scarcely 20%, whereas with an equal amount of the C5 additive the penetration lay above 50%. However, if one increases the amount of the C3 derivative 2.5 fold, then the percentage penetrating also increases to about 50%.

| Molecule | percentage proportion of active material which has passed the blood-brain barrier, with C3 | proportion of active material advancing to the place of action at higher concentrations (higher concentrations, up to above 10 mMole) | percentage proportion of active material which has passed the blood-brain barrier, with C5 | percentage proportion of active material which has passed the blood-brain barrier, without | percentage penetrating with increased amount of the C3 derivative (amount of the C3 derivative increased 2.5 fold) | percentage proportion of active material passing the barrier at higher concentrations (up to above 10 mMole) | penetration improvement (FIG. 2, M.W. above 600) |
| --- | --- | --- | --- | --- | --- | --- | --- |
| O=c1[nH]cc(F)c(=O)[nH]1 [5-fluorouracil] |  |  | 13.0 ± 0.1% | 3.7 ± 1.0% |  |  |  |
| COc1cccc2c1C(=O)c1c(O)c3c(c(O)c1C2=O)C[C@@](O)(C(C)=O)C[C@@H]3O[C@H]1C[C@H](N)[C@H](O)[C@H](C)O1 [daunomycin] | 24.1 ± 3.3% |  | 76.8 ± 7.0% | 10.8 ± 2.7% |  |  |  |
| O=P1(N(CCCl)CCCl)NCCCO1 (centres unmarked) [endoxan] | 18.9 ± 0.3% and ~20% |  |  | 11.4 ± 0.4% | about 50% |  |  |
| CN(Cc1cnc2nc(N)nc(N)c2n1)c1ccc(C(=O)N[C@@H](CCC(=O)O)C(=O)O)cc1 [methotrexate] | 5.7 ± 1.0% | a linear increase | 26.2 ± 5.8% | 4.7 ± 0.6% |  | practically the same percentage proportion of active material passing the barrier |  |
| O=C1c2c(O)ccc(O)c2C(=O)c2c(NCCNCCO)ccc(NCCNCCO)c21 [mitoxandrone] |  |  | 25.1 ± 2.0% | 1.8 ± 0.1% |  |  |  |
| bleomycin |  |  | 5.7 ± 1.8% | 4.9 ± 1.4% |  |  | relatively small |

More lines, main results first:

| percentage proportion of active material which has passed the blood-brain barrier, with C3 | proportion of active material advancing to the place of action at higher concentrations (higher concentrations, up to above 10 mMole) | Molecule | percentage proportion of active material which has passed the blood-brain barrier, with C5 | percentage proportion of active material which has passed the blood-brain barrier, without | percentage penetrating with increased amount of the C3 derivative (amount of the C3 derivative increased 2.5 fold) | percentage proportion of active material passing the barrier at higher concentrations (up to above 10 mMole) | penetration improvement (FIG. 2, M.W. above 600) |
| --- | --- | --- | --- | --- | --- | --- | --- |
| 16.4 ± 4.1% |  | CCCCCCCCCCCCCCCCCCOCC(COP(=O)([O-])OCC[N+](C)(C)C)OC (centres unmarked) [ET 18-O-CH3] |  | 4.5 ± 0.8% |  |  |  |
| 4.2 ± 0.6% |  | CC[C@]1(O)C[C@@H]2CN(CCc3c([nH]c4ccccc34)[C@@](C(=O)OC)(c3cc4c(cc3OC)N(C)[C@H]3[C@@](O)(C(=O)OC)[C@H](OC(C)=O)[C@]5(CC)C=CCN6CC[C@]43[C@@H]65)C2)C1 [vinblastine] | 44.3 ± 6.7% | 5.4 ± 1.7% |  |  |  |
